Like-named read-outs stand apart in the source and are kept apart here.
How the values were obtained:
[1] = test system: H3K27me3 mark in HeLa cells (EZH2); experiment: H3K27me3 Alpha Hela Assay (AlphaLISA); format: cell-based
Procedure, shortened: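 HeLa cells (1,000/well) treated with ten 3-fold compound doses for 72 h at 37 °C; lysates extracted and H3K27me3 detected by AlphaLISA with anti-K27me3 acceptor beads, biotinylated anti-H3 (3 nM) and streptavidin donor beads. EC50 from DMSO-normalized dose-response curves; duplicate plate assessed viability.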

[2] = biological target: T1, PRC2 containing wt EZH2 (Homo sapiens (Human), UniProt Q15910); experiment: EZH2 residence time assay (100-fold dilution of pre-formed enzyme-inhibitor complex); format: biochemical
Method: EZH2 residence time assay: Compound residence times were assessed by monitoring the recovery of enzyme activity following a 100-fold dilution of pre-formed enzyme-inhibitor complex (dilution reaction), and comparing it to the activity of an undiluted control with the same final concentrations of all reagents (control reaction). Enzyme activity was measured by incorporation of ^3H-SAM into a biotinylated H3 peptide. […] For the control reaction, 0.202 nM PRC2 was pre-incubated with 1 μM activating peptide, 1.01 μM SAM, 1.01 μM ^3H-SAM, and compound at 6.06 times its Ki for 2 h in 138.6 μL of buffer, then the reaction was initiated by the addition of 1.4 μL 500 μM substrate peptide in water. Reactions were quenched at various time points spanning up to 10 hours, by transferring 8 μL aliquots from the reaction vessel to a plate containing 8 μL per well of STOP solution (50 mM Tris pH 8.5, 200 mM EDTA, 2 mM SAH). After the last time point, 12 μL of the quenched solutions were transferred to a streptavidin coated FlashPlate (PerkinElmer) containing 40 μL per well of STOP solution, incubated 1-8 h, washed, and read in a TopCount plate reader (PerkinElmer). A custom script was used to fit control reaction progress data to a straight line and dilution reaction progress data:
Where y is the product formed, t is the reaction time, vi is the initial velocity, vs is the steady state velocity, and kobs is the rate constant for the transition from the initial velocity phase of the curve to the steady state velocity phase of the curve. In fitting the dilution reaction progress data, vs was constrained to the slope of the line fitted to the control reaction progress data. The fitted value of kobs was then transformed into residence time:
Where τ is residence time, Ki is the inhibition constant, [EI] is the calculated equilibrium concentration of enzyme-inhibitor complex, [E] is the calculated equilibrium concentration of free enzyme, and [I] is the calculated equilibrium concentration of free inhibitor.

[3] = biological target: T1, PRC2 containing wt EZH2; experiment: EZH2 biochemical assay (IC50), 3H-SAM incorporation into biotinylated H3 peptide; settings: 30 pM PRC2 containing wt EZH2; 3-5 h pre-incubation; read-out: EZH2 (IC50)
Procedure, shortened: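 Activity was measured as ³H-methyl transfer to a biotinylated H3K27me1 peptide over 18-22 h at room temperature, with capture on streptavidin flash plates. The 30 pM wt-EZH2 PRC2 complex was first pre-incubated 3-5 h with compound, 450 nM SAM/450 nM ³H-SAM and 2 µM H3K27me3 activator (pH 8.5, 0.8% DMSO). Four-parameter fits gave IC50.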

[4] = Homo sapiens, HeLa, HeLa cell assay, Table 3 classes, read-out: EC50 Cellular Activity
[5] = Homo sapiens, HeLa, 72 h, HeLa cells, 72 hrs, read-out: EZH2 Cell H3K27me3 Alpha HeLa (EC50 K27me3)

T1 sequence (Q15910 whole entry): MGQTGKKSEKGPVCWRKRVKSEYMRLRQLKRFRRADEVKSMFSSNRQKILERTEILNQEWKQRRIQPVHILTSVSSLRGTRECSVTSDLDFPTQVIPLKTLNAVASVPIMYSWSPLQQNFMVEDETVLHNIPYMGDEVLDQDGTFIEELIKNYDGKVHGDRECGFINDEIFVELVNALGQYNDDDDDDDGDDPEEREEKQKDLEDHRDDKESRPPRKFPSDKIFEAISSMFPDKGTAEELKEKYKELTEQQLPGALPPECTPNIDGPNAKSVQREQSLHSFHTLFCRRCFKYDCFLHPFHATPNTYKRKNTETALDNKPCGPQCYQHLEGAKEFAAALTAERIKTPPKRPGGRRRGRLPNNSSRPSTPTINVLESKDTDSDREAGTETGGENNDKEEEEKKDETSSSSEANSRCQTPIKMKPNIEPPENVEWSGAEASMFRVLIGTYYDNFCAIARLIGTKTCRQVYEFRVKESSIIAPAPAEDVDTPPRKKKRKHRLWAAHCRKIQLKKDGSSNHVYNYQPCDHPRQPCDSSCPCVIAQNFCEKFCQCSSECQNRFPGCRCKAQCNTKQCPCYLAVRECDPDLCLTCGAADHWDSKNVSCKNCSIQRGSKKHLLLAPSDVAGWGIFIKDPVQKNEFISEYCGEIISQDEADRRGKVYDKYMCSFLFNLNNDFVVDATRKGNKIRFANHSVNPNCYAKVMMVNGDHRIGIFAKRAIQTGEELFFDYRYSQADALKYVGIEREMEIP
T1 sequence (O75530 whole entry partner): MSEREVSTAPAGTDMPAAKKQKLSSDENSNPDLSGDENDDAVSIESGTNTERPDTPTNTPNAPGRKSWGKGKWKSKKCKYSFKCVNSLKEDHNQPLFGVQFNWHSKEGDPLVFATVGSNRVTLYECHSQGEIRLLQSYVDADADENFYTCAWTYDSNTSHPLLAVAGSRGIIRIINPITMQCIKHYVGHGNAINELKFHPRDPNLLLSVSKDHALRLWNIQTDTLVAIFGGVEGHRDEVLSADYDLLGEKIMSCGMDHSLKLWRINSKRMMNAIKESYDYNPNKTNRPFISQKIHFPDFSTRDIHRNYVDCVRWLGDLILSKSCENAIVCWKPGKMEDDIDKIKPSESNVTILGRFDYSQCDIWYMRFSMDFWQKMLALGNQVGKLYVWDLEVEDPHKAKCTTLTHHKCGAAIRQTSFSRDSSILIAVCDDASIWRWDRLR
T1 sequence (Q15022 whole entry partner): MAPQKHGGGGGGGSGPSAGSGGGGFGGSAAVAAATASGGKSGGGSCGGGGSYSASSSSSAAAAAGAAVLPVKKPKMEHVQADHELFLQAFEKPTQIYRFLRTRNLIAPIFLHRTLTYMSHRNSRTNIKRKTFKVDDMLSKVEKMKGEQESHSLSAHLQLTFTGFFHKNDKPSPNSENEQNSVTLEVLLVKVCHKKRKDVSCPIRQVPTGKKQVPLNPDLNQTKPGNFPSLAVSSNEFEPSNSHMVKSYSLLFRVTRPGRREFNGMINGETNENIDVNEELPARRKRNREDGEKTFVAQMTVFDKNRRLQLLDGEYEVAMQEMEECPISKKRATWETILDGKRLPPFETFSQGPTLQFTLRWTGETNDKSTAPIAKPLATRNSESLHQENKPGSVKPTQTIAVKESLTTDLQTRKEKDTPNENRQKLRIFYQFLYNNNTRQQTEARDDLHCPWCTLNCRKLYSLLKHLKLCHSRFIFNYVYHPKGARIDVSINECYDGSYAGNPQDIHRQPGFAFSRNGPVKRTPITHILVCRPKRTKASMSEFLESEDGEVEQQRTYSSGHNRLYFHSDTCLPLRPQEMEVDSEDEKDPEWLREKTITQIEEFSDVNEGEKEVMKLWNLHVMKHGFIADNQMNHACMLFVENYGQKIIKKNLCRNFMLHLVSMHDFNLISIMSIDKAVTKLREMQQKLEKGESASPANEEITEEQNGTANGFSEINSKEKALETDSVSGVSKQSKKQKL
T1 sequence (Q09028 whole entry partner): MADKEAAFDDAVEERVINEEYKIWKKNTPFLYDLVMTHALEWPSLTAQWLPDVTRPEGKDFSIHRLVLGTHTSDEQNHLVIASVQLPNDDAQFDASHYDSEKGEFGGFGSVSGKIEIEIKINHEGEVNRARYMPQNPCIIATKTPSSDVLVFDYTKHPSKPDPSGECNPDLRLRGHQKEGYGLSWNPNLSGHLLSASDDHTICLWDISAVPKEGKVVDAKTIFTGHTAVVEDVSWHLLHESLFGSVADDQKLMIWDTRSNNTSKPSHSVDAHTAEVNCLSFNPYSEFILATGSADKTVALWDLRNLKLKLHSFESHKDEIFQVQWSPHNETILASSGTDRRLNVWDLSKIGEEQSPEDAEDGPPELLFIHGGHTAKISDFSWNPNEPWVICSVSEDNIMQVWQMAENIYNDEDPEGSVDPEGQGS
T1 sequence (Q6ZN18 whole entry partner): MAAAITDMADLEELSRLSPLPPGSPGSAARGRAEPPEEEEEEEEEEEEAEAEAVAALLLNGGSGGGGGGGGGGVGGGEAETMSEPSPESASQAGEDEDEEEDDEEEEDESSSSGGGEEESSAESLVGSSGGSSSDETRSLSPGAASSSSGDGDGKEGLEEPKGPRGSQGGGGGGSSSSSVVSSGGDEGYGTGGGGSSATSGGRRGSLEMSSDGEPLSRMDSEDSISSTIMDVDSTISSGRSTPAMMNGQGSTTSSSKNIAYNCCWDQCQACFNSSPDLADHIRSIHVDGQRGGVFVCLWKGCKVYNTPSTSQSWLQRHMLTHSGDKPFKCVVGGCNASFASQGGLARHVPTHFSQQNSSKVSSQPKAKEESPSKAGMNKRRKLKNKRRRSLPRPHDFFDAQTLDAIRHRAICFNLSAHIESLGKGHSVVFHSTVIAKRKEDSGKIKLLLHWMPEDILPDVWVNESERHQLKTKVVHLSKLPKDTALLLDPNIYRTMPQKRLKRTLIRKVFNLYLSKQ

SMILES: Cc1cc(C)c(CNC(=O)c2c(C)n([C@H](C)C34CC(NC5COC5)(C3)C4)c3ccccc23)c(=O)[nH]1
- EC50 [1, 4]: 0.025 to 0.125 µM
- residence time ([2]; read-out: Residence Time): < 30 min

SMILES: Cc1cc(C)c(CNC(=O)c2c(C)n([C@H](C)C34CC(N(C)CC(F)(F)F)(C3)C4)c3ccccc23)c(=O)[nH]1
- EC50 [1, 4]: > 0.125 µM
- residence time ([2]; read-out: Residence Time): < 30 min

SMILES: COc1cc(C)[nH]c(=O)c1CNC(=O)c1c(C)n([C@H](C)C23CC(N(C)CC(F)(F)F)(C2)C3)c2ccccc12
- EC50 [1, 4]: 0.025 to 0.125 µM
- residence time ([2]; read-out: Residence Time): 30 to 300 min

SMILES: Cc1cc(C)c(CNC(=O)c2c(C)n([C@H](C)C3CCN(CC(C)(C)O)CC3)c3ccccc23)c(=O)[nH]1
- EC50 [1, 4]: > 0.125 µM
- residence time [2]: < 30 min

SMILES: COc1cc(C)[nH]c(=O)c1CNC(=O)c1c(C)n([C@H](C)C2CCN(CC(C)(C)O)CC2)c2ccccc12
- EC50 [1, 4]: > 0.125 µM
- residence time [2]: < 30 min

SMILES: Cc1cc(C)c(CNC(=O)c2c(C)n([C@H](C)C3CCN(CC(F)(F)F)CC3)c3ccccc23)c(=O)[nH]1
- EC50 [1, 4]: 0.025 to 0.125 µM
- residence time [2]: < 30 min

SMILES: COc1cc(C)[nH]c(=O)c1CNC(=O)c1c(C)n([C@H](C)C2CCN(CC(F)(F)F)CC2)c2ccccc12
- EC50 [1, 4]: 0.005 to 0.025 µM
- residence time ([2]; read-out: Residence Time): 30 to 300 min

SMILES: Cc1cc(Cl)c(CNC(=O)c2c(C)n([C@H](C)C3CCOCC3)c3ccccc23)c(=O)[nH]1
- EC50 [1, 4]: 0.025 to 0.125 µM
- residence time [2]: < 30 min

SMILES: CSc1cc(C)[nH]c(=O)c1CNC(=O)c1c(C)n([C@H](C)C2CCC(N3CC(OC4CC4)C3)CC2)c2ncccc12 (stereo partly shown)
- EC50 [1, 4]: < 0.005 µM
- residence time ([2]; read-out: Residence Time): 300 to 2100 min

SMILES: CSc1cc(C)[nH]c(=O)c1CNC(=O)c1c(C)n([C@H](C)C2CCC(NC3(C(F)(F)F)COC3)CC2)c2ccccc12 (stereo partly shown)
- EC50 [1, 4]: < 0.005 µM
- residence time [2]: 300 to 2100 min

SMILES: COC1CN(C2CCC([C@@H](C)n3c(C)c(C(=O)NCc4c(Cl)cc(C)[nH]c4=O)c4ccccc43)CC2)C1 (single isomer, unassigned)
- EC50 [1, 4]: 0.005 to 0.025 µM
- residence time [2]: 30 to 300 min

SMILES: COC1CN(C2CCC([C@@H](C)n3c(C)c(C(=O)NCc4c(C)cc(C)[nH]c4=O)c4ccccc43)CC2)C1 (single isomer, unassigned)
- EC50 [1, 4]: 0.005 to 0.025 µM
- residence time [2]: 30 to 300 min

SMILES: CSc1cc(C)[nH]c(=O)c1CNC(=O)c1c(C)n([C@H](C)C2CCC(N3CC(OC(F)F)C3)CC2)c2ncccc12 (single isomer, unassigned)
- EC50 [1, 4]: < 0.005 µM
- residence time ([2]; read-out: Residence Time): 300 to 2100 min

SMILES: Cc1cc(Cl)c(CNC(=O)c2c(C)n([C@H](C)C3CCC(NC4(C)COC4)CC3)c3ccccc23)c(=O)[nH]1 (single isomer, unassigned) [drawing 201]
- EC50 ([1]; HeLa cell assay, Table 3 classes, read-out: EC50 Cellular Activity): 0.025 to 0.125 µM
- residence time [2]: D (a t value of less or equal than 0.5 hours)

SMILES: CSc1cc(C)[nH]c(=O)c1CNC(=O)c1c(C)n([C@H](C)C2CCC(N3CC(O)(C(C)C)C3)CC2)c2ncccc12 (stereo partly drawn) [Example 158, 1-((R)-1-(4-(3-hydroxy-3-isopropylazetidin-1-yl)cyclohexyl)ethyl)-2-methyl-N-((6-methyl-4-(methylthio)-2-oxo-1,2-dihydropyridin-3-yl)methyl)-1H-pyrrolo[2,3-b]pyridine-3-carboxamide]
- IC50 [3]: < 0.0005 µM
- EC50 [1, 5]: > 0.1 µM

SMILES: CSc1cc(C)[nH]c(=O)c1CNC(=O)c1c(C)n([C@H](C)C2CCC(N3CC(n4ccnn4)C3)CC2)c2ccccc12 (stereo partly drawn) [Example 160, 1-((R)-1-(4-(3-(1H-1,2,3-triazol-1-yl)azetidin-1-yl)cyclohexyl)ethyl)-2-methyl-N-((6-methyl-4-(methylthio)-2-oxo-1,2-dihydropyridin-3-yl)methyl)-1H-indole-3-carboxamide]
- IC50 [3]: < 0.0005 µM
- EC50 [1, 5]: < 0.01 µM

SMILES: CSc1cc(C)[nH]c(=O)c1CNC(=O)c1c(C)n([C@H](C)C2CCC(NC3(C(F)(F)F)CC3)CC2)c2ncccc12 (stereo partly drawn) [Example 161, 2-methyl-N-((6-methyl-4-(methylthio)-2-oxo-1,2-dihydropyridin-3-yl)methyl)-1-((R)-1-(4-((1-(trifluoromethyl)cyclopropyl)amino)cyclohexyl)ethyl)-1H-pyrrolo[2,3-b]pyridine-3-carboxamide]
- IC50 [3]: < 0.0005 µM
- EC50 [1, 5]: 0.01 to 0.1 µM

— US11459315B2, “Modulators of methyl modifying enzymes, compositions and uses thereof” (Constellation Pharmaceuticals, Inc., priority 2017, dated 2022)
